Measured values from patent US8173385B2, “Method for stabilization of peptides in a biological sample” (Kyowa Medex Co., Ltd., priority 2005, dated 2012).
Read-outs that look alike come from different tables or passages of the source. Values belong to the molecule of their own block, whether it stands above or below them.

Columns and labels:
[1] = system: substance P in human plasma
Method: (§1) To 50 μL portions of human plasma prepared in the same manner as in Example 1 was added a 400 mg/mL aqueous solution of glucose (special grade; Kanto Chemical Co., Inc.) prepared with purified water (100 μL), followed by mixing. […] The concentrations of substance P in the thawed portions of sample N were measured in the same manner as in Example 1 to calculate the residual rates, which are the index for the stability of substance P in plasma.
(§2) To 50 μL portions of human plasma prepared in the same manner as in Example 1 was added a 200 pg/mL aqueous solution of substance P (50 μL) to prepare six portions of sample.
(§3) After the preparation, the samples were frozen at −80° C. and then thawed at room temperature 0 day, 3 days and 13 days after the freezing. The concentrations of substance P in the thawed samples were measured in the same manner as in Example 1 using Substance P EIA Kit (Cayman) to calculate the residual rates, which are the index for the stability of substance P in plasma.

[2] = system: neutral endopeptidase (NEP); experiment: Effect of addition of a saccharide on degradation of substance P by neutral endopeptidase (NEP); type: biochemical; details: for Degradation of substance P by NEP: result in words
Method: Similarly, samples each comprising 150 μL of human plasma, 150 μL of a 200 pg/mL aqueous solution of substance P, 300 μL of a 400 mg/mL aqueous solution of glucose and 50 μL of an enzyme solution (respective NEP concentrations; 0 U/mL, 0.1 U/mL, 1.0 U/mL and 10.0 U/mL) were prepared.
Further, samples each comprising 150 μL of human plasma, 150 μL of a 200 pg/mL aqueous solution of substance P, 300 μL of a 10 mmol/L aqueous solution of phosphoramidon and 50 μL of an enzyme solution (respective NEP concentrations; 0 U/mL, 0.1 U/mL, 1.0 U/mL and 10.0 U/mL) were prepared.

[3] = system: substance P in human plasma; experiment: Stabilization of substance P in plasma by addition of a saccharide when frozen at −80° C.; details: Example 6: same additive solutions
Method: as §1, §2, §3

[4] = Stability of substance P in aqueous solution without plasma (Substance P EIA Kit); type: physicochemical; details: for Concentration of substance P measured in the substance P solution: 200 pg/mL aqueous solution
Method: When the 200 pg/mL aqueous solution of substance P was, without being mixed with the human plasma, subjected to measurement of substance P under the present measurement conditions including incubation at 4° C. for 18 hours, the obtained value was 226.16 pg/mL. […] On the other hand, as shown in the experiment on the control sample, when the sample having the initial substance P concentration of 116.93 pg/mL was subjected to measurement under the present measurement conditions including incubation at 4° C. for 18 hours, the obtained average substance P concentration was 60.57 pg/mL.
The concentrations of substance P in the human plasma used for the preparation of the samples subjected to the incubation for 16 hours, 24 hours and 48 hours were determined to be 15.02 pg/mL, 4.95 pg/mL and 5.71 pg/mL, respectively. The concentrations of substance P in the substance P solution used for the preparation of the samples subjected to the incubation for 16 hours, 24 hours and 48 hours were determined to be 211.1 pg/mL, 208.4 pg/mL and 197.8 pg/mL, respectively. From these measurement values, the theoretical values of the concentrations of substance P in the samples were calculated in the same manner as in Example 1, and the residual rates were calculated from the theoretical values and the measurement values.

[5] = system: substance P in human plasma; details: 4° C. 18 hours
Method: To 50 μL portions of the human plasma were respectively added a 200 mg/mL aqueous solution of xylose, a 200 mg/mL aqueous solution of glucose, a 200 mg/mL aqueous solution of mannose and a 200 mg/mL aqueous solution of galactose (100 μL each), followed by mixing.
Measurement of substance P in samples A to D and the control sample was carried out in duplicate in the following manner, using Substance P EIA Kit (Cayman) according to the manual attached to the kit.
The above kit is a kit for enzyme immunoassay by the competitive method using, as a competitive substance, substance P bound to acetylcholine esterase (substance P AchE tracer). The measurement with this kit is carried out by allowing substance P in a sample and the competitive substance to competitively react with anti-substance P antibody on a solid phase and reacting acetylcholine esterase in the competitive substance bound to the anti-substance P antibody on a solid phase with Ellman's reagent to develop color, followed by the measurement of the absorbance. Then, the concentration of substance P in the sample can be determined based on a previously prepared calibration curve. […]

Residual rate, Day 3 [1]: 26.4%
Residual rate, Day 13 [1]: 32.6%
Molecule: O=C([O-])CN(CCN(CC(=O)[O-])CC(=O)O)CC(=O)O.[Na+].[Na+] [EDTA•2Na, ethylenediaminetetraacetic acid.disodium]

Degradation of substance P by NEP [2]: inhibited
Residual rate, Day 3 ([1]; human, 3 days): 29.0%
Residual rate, Day 13 ([1]; human, 13 days): 25.6%
Molecule: CC(C)C[C@H](NP(=O)(O)O[C@@H]1O[C@@H](C)[C@H](O)[C@@H](O)[C@H]1O)C(=O)N[C@@H](Cc1c[nH]c2ccccc12)C(=O)O [Phosphoramidon, phosphoramidon]

Molecule: magnesium gluconate
Residual rate, Day 3 ([3]; thawed 3 days after the freezing): 42.6%
Residual rate, Day 13 ([3]; thawed 13 days after the freezing): 40.1%

Molecule: substance P
Concentration of substance P measured in the substance P solution ([4]; incubation 16 hours at 4° C.): 0.2111 ng/mL
Concentration of substance P measured in the substance P solution ([4]; incubation 24 hours at 4° C.): 0.2084 ng/mL
Concentration of substance P measured in the substance P solution ([4]; incubation 48 hours at 4° C.): 0.1978 ng/mL
Stability of substance P in the aqueous solution ([4]; 4° C. 18 hours, result in words): stable
Concentration of substance P measured in the 200 pg/mL aqueous solution of substance P ([4]; without human plasma, incubation at 4° C. for 18 hours): 0.22616 ng/mL
Residual rate of substance P, NEP concentration 0 U/mL ([2]; human plasma + substance P ± 400 mg/mL glucose or 10 mmol/L phosphoramidon solution, enzyme solution NEP 0 U/mL): 100.0%
Residual rate of substance P, NEP concentration 0.1 U/mL ([2]; human plasma + substance P ± 400 mg/mL glucose or 10 mmol/L phosphoramidon solution, enzyme solution NEP 0.1 U/mL): 102.2%
Residual rate of substance P, NEP concentration 1.0 U/mL ([2]; human plasma + substance P ± 400 mg/mL glucose or 10 mmol/L phosphoramidon solution, enzyme solution NEP 1.0 U/mL): 93.3%
Residual rate of substance P, NEP concentration 10.0 U/mL ([2]; human plasma + substance P ± 400 mg/mL glucose or 10 mmol/L phosphoramidon solution, enzyme solution NEP 10.0 U/mL): 84.0%
Degradation of substance P by NEP [2]: degraded by NEP
Average substance P concentration in plasma without saccharide ([5]; control sample, initial substance P concentration 116.93 pg/mL): 60.57 pg/mL
Stability of substance P in the presence of plasma ([5]; no saccharide, result in words): unstable
